Patent publication US20100041089A1, “IMPROVED METHOD FOR DETECTING CHEMICAL […]” (priority 2006, published 2010)

Tested on: promoter of yeast gene YKL071w
Assay: Dissolved oxygen measurement with oxygen electrode using yeast transformed with YKL071w promoter linked to oxidase (pyridoxamine phosphate substrate)
Assay type: cell-based, Saccharomyces cerevisiae W303
Settings: sample solutions A, B, C with 0.0053, 0.053, 0.53 ppm versus standard solution S; FIG. 4
Experimental: Primers for PCR to amplify the polynucleotide comprising the promoter of yeast gene YKL071w were prepared. Primers were designed using a primer design software, Oligo4.0-S, Sequencher I Mackintosh version. The base sequence of the upper primer was:
For PCR, yeast chromosome (Saccharomyces cerevisiae S288C, Cat.40802, Research Genetics, Inc.) was used as template, and the commercially available kit (KOD DNA Polymerase; Code KOD-101, Toyobo) was used as reagents. […]
The yeast in a steady state is diluted 500 times with the SD medium, and it is shake cultured at 25° C. for 15 hours. After confirming the logarithmic growth phase at which absorbance at 600 nm is within 0.2 to 0.5, different concentrations of TPN is loaded. […]
By comparing a temporal change in a measured current value for the sample solution A, B or C and a temporal change in a measured current value for the standard solution S, an amount of pyridoxamine phosphate oxidase produced by stimulation of the chemical substance (TPN) in respective solutions for measurement may be determined and, thereby, existence or a quantity of the chemical substance may be detected.

SMILES: N#Cc1c(Cl)c(Cl)c(Cl)c(C#N)c1Cl [(9), 2,4,5,6-Tetrachloro-1,3-benzenedicarbonitrile]
- Temporal change in current value for dissolved oxygen measurement: as the concentration of the chemical substance (TPN) becomes larger, a decreasing rate of a current value at an initial stage becomes larger and a steady state value after reaching a plateau becomes lower
